We go through two substances from patent publication US9974849B2, “Human Papilloma virus therapeutic vaccine” (The Board of Trustees of the University of Arkansas, priority 2013, dated 2018).

The nature of data set [1]: Solubilizing HPV E6 peptides in buffer. Type of data set: physicochemical. How it is done:
We attempted to make a pharmaceutical formulation with four HPV E6 peptides. The 4 peptides were peptides consisting of residues 1-45, 46-80, 81-115, and 116-158 of SEQ ID NO:1. Each of the peptides was amidated at its carboxyl terminus and acetylated at its amino terminus. The peptides were each chemically synthesized.
For the pharmaceutical formulation, this was mixed with trehalose as a stabilizing agent and glycine as tonicity modifier. The final concentrations of the formulation were 10 mM glutamate, 1.0% w/v trehalose, 2.0% w/v glycine, and 0.714 mg/ml each of the four peptides.

Data set [2] relates to CD3 T cells co-cultured with autologous LCs. Put plainly: T cell proliferation induced by treated LCs (alamarBlue). Conditions: 7 days co-culture. The data set is classed as cell-based, human.

As for “Ac-SEYRHYCYSLYGTTLEQQYNK PLCDLLIRCINCQK-NH2 [E6 81-115]”, the Solubility result in data set [1] (added to 10 mM glutamate, pH 4.0 solution already containing solubilized E6 1-45, E6 46-80, E6 116-158, 5 mg/ml for each of the four peptides) is “could be solubilized and will stay soluble”; in data set [1] (alone, in any suitable buffer for manufacturing) it was “insoluble”.

Take tetanus toxoid: the “Subjects with measurable proliferation (increased fluorescence of ≥5000)” value in data set [2] is “subjects 2 and 5”. For the same substance, the T-cell proliferation entry in data set [2] (over media) is “no significant increase over media”.
